Article PMC4176091, “Novel expression of Haemonchus contortus vaccine candidate aminopeptidase H11 using the free-living nematode Caenorhabditis elegans” (Veterinary Research, 2013)

Columns and labels:
Experiment in all cases: aminopeptidase assay, absorbance at […] nm
Type in all cases: biochemical
Details in all cases: 0.5 mM substrate; 50 mM NaPO4, pH 5.5 and 7; 2 h at 37 °C then overnight at room temperature
[1] = molecular target: T1, rH11-5 (Haemonchus contortus, UniProt V5K5H8)
T1 construct: soluble, expressed in C. elegans; N-terminal transmembrane domain (35 aa) replaced by Hmcp-6 signal peptide; C-terminal 10 aa His tag; cobalt resin
T1 sequence (V5K5H8 entry or part of it): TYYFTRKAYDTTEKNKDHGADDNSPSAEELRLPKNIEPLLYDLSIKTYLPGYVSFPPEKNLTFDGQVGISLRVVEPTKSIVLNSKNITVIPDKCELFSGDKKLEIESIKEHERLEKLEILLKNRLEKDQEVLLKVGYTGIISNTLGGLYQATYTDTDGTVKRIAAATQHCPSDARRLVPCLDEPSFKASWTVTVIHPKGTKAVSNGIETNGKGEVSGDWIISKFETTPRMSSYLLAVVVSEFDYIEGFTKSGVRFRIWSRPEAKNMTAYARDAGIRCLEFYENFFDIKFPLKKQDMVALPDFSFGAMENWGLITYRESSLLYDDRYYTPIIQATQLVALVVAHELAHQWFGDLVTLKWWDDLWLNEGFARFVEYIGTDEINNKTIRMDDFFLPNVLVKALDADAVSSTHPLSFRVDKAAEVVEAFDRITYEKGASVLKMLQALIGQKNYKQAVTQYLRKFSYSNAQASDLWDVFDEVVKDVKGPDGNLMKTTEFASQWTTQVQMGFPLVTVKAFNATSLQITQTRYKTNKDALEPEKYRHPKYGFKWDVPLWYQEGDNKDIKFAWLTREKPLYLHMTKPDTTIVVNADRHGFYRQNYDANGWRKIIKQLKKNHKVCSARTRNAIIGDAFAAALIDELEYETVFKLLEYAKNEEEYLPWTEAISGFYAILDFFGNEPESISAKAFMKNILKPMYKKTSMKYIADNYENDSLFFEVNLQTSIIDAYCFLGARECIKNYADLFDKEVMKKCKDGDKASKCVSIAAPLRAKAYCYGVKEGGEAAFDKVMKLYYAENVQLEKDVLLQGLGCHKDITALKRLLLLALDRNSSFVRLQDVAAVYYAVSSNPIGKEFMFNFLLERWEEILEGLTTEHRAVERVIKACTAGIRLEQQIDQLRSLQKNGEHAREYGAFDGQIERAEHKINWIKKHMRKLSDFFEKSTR

[2] = molecular target: T2, rH11-1 (Haemonchus contortus, UniProt Q9U5P6)
T2 construct: gene h11-1; soluble, expressed in C. elegans; N-terminal transmembrane domain (35 aa) replaced by Hmcp-6 signal peptide; C-terminal 10 aa His tag; cobalt resin
T2 sequence (Q9U5P6 entry or part of it): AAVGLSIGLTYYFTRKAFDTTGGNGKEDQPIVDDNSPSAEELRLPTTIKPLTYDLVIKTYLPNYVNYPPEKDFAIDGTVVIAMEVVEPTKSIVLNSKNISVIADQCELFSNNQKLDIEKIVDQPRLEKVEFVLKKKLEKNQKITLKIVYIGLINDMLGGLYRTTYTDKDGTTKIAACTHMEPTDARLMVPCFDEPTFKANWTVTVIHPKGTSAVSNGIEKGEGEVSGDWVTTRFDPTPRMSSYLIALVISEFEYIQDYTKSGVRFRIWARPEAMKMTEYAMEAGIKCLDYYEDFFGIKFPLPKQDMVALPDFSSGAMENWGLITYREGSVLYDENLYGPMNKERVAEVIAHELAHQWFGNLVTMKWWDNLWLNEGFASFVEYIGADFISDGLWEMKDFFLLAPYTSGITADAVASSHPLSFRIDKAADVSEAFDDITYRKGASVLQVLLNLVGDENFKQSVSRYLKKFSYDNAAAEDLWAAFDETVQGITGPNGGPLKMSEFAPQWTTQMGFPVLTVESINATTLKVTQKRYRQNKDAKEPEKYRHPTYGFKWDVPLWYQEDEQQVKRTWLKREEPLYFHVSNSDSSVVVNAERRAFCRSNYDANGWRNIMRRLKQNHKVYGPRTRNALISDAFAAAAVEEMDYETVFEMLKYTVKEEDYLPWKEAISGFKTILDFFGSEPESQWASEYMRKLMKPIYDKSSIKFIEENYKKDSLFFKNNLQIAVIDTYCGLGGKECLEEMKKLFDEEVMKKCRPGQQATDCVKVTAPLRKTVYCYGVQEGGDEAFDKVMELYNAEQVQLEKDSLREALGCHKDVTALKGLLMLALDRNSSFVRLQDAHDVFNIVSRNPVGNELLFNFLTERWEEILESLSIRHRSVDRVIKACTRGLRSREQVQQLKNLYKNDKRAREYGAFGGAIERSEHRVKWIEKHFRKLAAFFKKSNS

[3] = molecular target: T3, rH11-4 (Haemonchus contortus, UniProt Q967C6)
T3 construct: gene h11-4; soluble, expressed in C. elegans; N-terminal transmembrane domain (35 aa) replaced by Hmcp-6 signal peptide; C-terminal 10 aa His tag; N-glycosylated; cobalt resin
T3 sequence (Q967C6 entry or part of it): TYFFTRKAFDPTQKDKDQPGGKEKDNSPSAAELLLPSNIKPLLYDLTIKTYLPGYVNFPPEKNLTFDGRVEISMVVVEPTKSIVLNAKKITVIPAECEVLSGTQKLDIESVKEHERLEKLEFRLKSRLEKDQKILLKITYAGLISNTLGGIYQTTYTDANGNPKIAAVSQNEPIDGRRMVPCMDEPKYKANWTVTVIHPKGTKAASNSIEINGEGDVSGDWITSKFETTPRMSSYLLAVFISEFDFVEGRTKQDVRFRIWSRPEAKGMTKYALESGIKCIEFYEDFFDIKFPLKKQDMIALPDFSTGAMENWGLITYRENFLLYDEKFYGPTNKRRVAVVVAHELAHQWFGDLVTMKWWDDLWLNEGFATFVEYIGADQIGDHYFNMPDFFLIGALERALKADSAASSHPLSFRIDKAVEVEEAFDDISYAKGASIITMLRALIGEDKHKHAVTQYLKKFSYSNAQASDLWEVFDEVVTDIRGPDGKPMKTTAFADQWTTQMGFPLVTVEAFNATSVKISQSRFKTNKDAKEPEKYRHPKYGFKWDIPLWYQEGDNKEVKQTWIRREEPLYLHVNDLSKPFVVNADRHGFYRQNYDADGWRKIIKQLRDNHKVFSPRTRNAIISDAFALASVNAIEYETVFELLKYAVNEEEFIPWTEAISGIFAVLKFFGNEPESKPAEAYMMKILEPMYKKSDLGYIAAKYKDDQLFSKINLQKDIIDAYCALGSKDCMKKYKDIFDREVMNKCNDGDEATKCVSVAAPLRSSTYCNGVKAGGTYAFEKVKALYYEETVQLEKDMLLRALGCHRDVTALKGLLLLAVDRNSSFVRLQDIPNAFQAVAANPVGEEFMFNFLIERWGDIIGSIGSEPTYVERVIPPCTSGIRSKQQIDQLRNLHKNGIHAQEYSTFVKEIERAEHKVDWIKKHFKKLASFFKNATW

[4] = molecular target: T4, H11 (rH11, isoform H11) (Haemonchus contortus, UniProt Q10737)
T4 construct: soluble, expressed in C. elegans; N-terminal transmembrane domain (35 aa) replaced by Hmcp-6 signal peptide; C-terminal 10 aa His tag; cobalt resin
T4 sequence (Q10737 36-972): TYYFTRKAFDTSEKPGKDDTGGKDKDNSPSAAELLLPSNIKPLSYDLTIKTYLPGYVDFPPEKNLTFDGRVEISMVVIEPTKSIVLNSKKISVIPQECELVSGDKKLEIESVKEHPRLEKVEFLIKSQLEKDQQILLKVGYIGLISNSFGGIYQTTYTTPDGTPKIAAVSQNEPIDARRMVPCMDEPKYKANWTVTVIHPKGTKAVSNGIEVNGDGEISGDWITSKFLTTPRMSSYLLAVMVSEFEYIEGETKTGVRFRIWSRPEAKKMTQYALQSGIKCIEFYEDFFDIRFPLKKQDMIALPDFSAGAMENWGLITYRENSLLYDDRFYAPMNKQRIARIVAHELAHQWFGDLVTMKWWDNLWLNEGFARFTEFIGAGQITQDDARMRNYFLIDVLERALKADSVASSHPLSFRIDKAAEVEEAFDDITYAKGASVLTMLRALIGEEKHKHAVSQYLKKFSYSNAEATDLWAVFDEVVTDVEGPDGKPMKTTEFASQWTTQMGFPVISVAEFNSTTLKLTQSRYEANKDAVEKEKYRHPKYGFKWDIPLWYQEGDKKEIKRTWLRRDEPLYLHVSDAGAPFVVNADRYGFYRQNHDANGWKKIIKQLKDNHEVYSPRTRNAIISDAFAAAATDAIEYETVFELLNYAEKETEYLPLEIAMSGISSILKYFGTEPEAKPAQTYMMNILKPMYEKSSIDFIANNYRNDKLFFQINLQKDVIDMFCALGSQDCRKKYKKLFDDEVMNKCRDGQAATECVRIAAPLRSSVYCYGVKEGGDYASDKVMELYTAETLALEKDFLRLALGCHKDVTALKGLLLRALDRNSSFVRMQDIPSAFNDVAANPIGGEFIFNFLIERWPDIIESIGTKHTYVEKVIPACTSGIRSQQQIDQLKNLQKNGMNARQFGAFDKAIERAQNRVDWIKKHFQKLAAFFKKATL

CC(C)C[C@H](N)C(=O)Nc1ccc([N+](=O)[O-])cc1 [L-leucine p-nitroanilide]
aminopeptidase assay, absorbance at 405 nm [1]: rH11-4 and rH11-5 showing greater activity than H11 and H11-1 isoforms | aminopeptidase assay, absorbance at 405 nm [2]: rH11-4 and rH11-5 showing greater activity than H11 and H11-1 isoforms | aminopeptidase assay, absorbance at 405 nm [3]: rH11-4 and rH11-5 showing greater activity than H11 and H11-1 isoforms | aminopeptidase assay, absorbance at 405 nm [4]: rH11-4 and rH11-5 showing greater activity than H11 and H11-1 isoforms
